# In patent publication US8088729B2 (priority 2005, dated 2012):
# pEC50: −log10 of the molar value. Values joined by “and” are separate entries in the source; they are usually repeats but may differ in a detail not shown here. Identical values can stand only once. Like-named read-outs stand apart in the source and are kept apart here.
# Tests used:
# MDCK cells [1] = test: cells; assay type: cell-based, canine
# MDCK cells [2] = test: cells; assay type: cell-based, canine; remark: listed apart in the source
# HCV RNA replicon = assay type: cell-based, Hepatitis C virus; settings: for Inhibition of Viral Activity (% reduction Luc): 20 µM
# Huh7 ET cell line = settings: for Cytotoxicity (% reduction in rRNA)*: single high-test concentration, compared to control cell
# Washington/05/96 (H3N2) = assay type: cell-based, influenza A
# [3] = system: fusion of CD4 β-gal cells with HL 2/3 cells; assay type: cell-based
# Shandong/09/93 (H3N2) = assay type: cell-based, influenza A
# CEM-SS cells = system: CEM-SS cells; set-up: direct cytotoxicity to the host cells: dose or concentration left out as unconfirmed
# [4] = biological target: sgp120 binding of CD4 on CEM-SS cells (Human immunodeficiency virus type 1 group M subtype B, UniProt P03375); settings: pretreatment of sgp120 with Griffithsin, Leu3a epitope availability
# SARS virus [5] = assay type: cell-based
# Los Angeles/2/87 (H3N2) = assay type: cell-based, influenza A
# HIV-1 ADA = assay type: cell-based; settings: HIV primary isolate ADA; macrophage; M-tropic; p24 ELISA; mean value
# gp120 [6] = assay type: binding, HIV-1; settings: 100 ng protein standard, Griffithsin 100 ng/well; FIG. 5a
# gp120 [7] = biological target: gp120 (Human immunodeficiency virus type 1 group M subtype B, UniProt P03378); assay type: binding, HIV-1; settings: glycosylated and nonglycosylated HIV-1SF2 gp120, serial dilutions; FIG. 5b
# [8] = system: T-lymphocytes (CEM-SS), PBMCs, macrophages; settings: concentrations 1000-fold higher than the EC50 values
# SARS virus [9] = system: SARS virus
# HIV-1 RF = assay type: cell-based
# gp160 = gp160 (Human immunodeficiency virus type 1 group M subtype B, UniProt P03375); settings: 100 ng protein standard, Griffithsin 100 ng/well; FIG. 5a
# HIV-1IIIB = assay type: cell-based; settings: concentration-dependent manner
# [10] = system: cell-cell fusion of uninfected and chronically infected CEM-SS; assay type: cell-based
# Beijing/262/95 (H1N1) = assay type: cell-based, influenza A
# SARS virus [11] = system: SARS virus; remark: listed apart in the source
# [12] = system: bovine IgG, α-acid glycoprotein, and aprotinin; assay type: binding
# Zaire ebola virus = assay type: cell-based
# Sydney/5/97 (H3N2) = assay type: cell-based, influenza A
# HIV-1 ROJO = assay type: cell-based; settings: HIV primary isolate ROJO; PBMC; T-tropic; supernatant RT activity; mean value
# Vero76 cells [13] = assay type: cell-based
# sCD4 = sCD4 (Homo sapiens, UniProt P01730); assay type: binding
# soluble gp120 (sgp120) = soluble gp120 (sgp120) (Human immunodeficiency virus type 1 group M subtype B, UniProt P03375)
# HIV = assay type: cell-based
# Description: Potent cytoprotective and anti-replicative activities of both natural and His-tagged recombinant Griffithsin were observed using the HIV-1RF strain of HIB in CEM-SS cells. […] In contrast, infectivity of cell-free virus was abolished after pretreatment and removal of Griffithsin.
# Vero76 cells [14] = assay type: cell-based; remark: listed apart in the source
# Panama/2007/99 (H3N2) = assay type: cell-based, influenza A
# Texas/36/91 (H1N1) = assay type: cell-based, influenza A
# HIV-1 Ba-L = assay type: cell-based; settings: HIV primary isolate Ba-L; macrophage; M-tropic; p24 ELISA; mean value
# [15] = Canis lupus familiaris, MDCK, 72 h
# Sequence of gp120 (Human immunodeficiency virus type 1 group M subtype B, UniProt P03378) (P03378 32-509 limits assumed): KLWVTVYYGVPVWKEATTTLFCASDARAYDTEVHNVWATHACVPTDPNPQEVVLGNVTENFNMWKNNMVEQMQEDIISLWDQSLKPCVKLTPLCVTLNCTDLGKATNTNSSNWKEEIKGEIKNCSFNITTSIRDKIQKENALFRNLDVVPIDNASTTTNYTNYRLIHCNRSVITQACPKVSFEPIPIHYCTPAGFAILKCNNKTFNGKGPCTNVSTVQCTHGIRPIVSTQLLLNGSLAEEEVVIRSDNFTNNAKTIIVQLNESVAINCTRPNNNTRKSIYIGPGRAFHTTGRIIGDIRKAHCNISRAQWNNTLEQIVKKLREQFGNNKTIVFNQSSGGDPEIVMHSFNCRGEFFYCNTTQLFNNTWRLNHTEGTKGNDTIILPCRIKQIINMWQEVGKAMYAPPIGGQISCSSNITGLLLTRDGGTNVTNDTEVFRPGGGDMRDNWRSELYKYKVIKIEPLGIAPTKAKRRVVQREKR
compound,measurement,setting,value
"NC(=O)c1ncn([C@@H]2O[C@H](CO)[C@@H](O)[C@H]2O)n1 [Ribavirin, reference compound]",IC50,MDCK cells [1]; [15],> 100 µg/mL
same,IC50,MDCK cells [2]; [15],> 100 µg/mL
IFN-α [reference compound],Inhibition of Viral Activity (% reduction Luc),HCV RNA replicon,98.6%
same,Cytotoxicity (% reduction in rRNA)*,Huh7 ET cell line; 72 hr,98.4%
Griffithsin,EC50,Washington/05/96 (H3N2),0.016 µg/mL
same,fusion of CD4 β-gal cells with HL 2/3 cells,[3],inhibited
same,EC50,Shandong/09/93 (H3N2),0.018 µg/mL
same,direct cytotoxicity to the host cells,CEM-SS cells; highest tested concentrations,no significant evidence of direct cytotoxicity
same,direct cytotoxicity to the uninfected control cells,CEM-SS cells; highest tested concentrations of Griffithsin (78.3 to 783 nM),little or no evidence of direct cytotoxicity
same,CD4-dependent sgp120 binding,[4],completely blocked
same,EC50,SARS virus [5],4 µg/mL and 2 µg/mL
same,average EC50,SARS virus [5],3 µg/mL
same,EC50,Los Angeles/2/87 (H3N2),0.037 µg/mL
same,pEC50,HIV-1 ADA,9.30
same,"interaction with gp120 (ELISA, absorbance at 405 nm)",gp120 [6],direct interaction
same,binding of Griffithsin to sgp120,gp120 [7],both concentration-dependent and glycosylation-dependent
same,toxicity to the MDCK cell line,MDCK cell line,not found to be toxic
same,toxicity against any of the cell lines,[8],did not show any toxicity
same,EC50,SARS virus [9],14 µg/mL
same,"anti-HIV activity, EC50","HIV-1 RF; CEM-SS cells infected with HIV-1, FIG. 4",low nanomolar range
same,inhibition of virus-induced cell killing,HIV-1 RF; HIV-1RF in CEM-SS cells,concentration-dependent inhibition
same,"supernatant reverse transcriptase and viral core antigen, p24",HIV-1 RF; HIV-1RF in CEM-SS cells,concomitant decreases
same,pEC50,"HIV-1 RF; HIV-1 laboratory strain RF, CEM-SS, T-tropic, XTT-tetrazolium, mean value",10.37
same,interaction with gp160 (ELISA),gp160,direct interaction
same,cell-free HIV-1IIIB fusion and infection of β-gal cells,HIV-1IIIB,inhibited
same,inhibition of cell-cell fusion,[10],concentration-dependent inhibition
same,EC50,Beijing/262/95 (H1N1),0.07 µg/mL
same,EC90,SARS virus [11],5 µg/mL
same,interaction with other reference proteins (ELISA),[12],little or no detectable interaction
same,IC50,MDCK cells [1],>10 µg/mL
same,anti-ebola virus activity,Zaire ebola virus,low μg/ml range
same,EC50 (anti-HCV),HCV RNA replicon,7.17 µg/mL
same,Inhibition of Viral Activity (% reduction Luc),HCV RNA replicon,60%
same,EC50,Sydney/5/97 (H3N2),0.016 µg/mL
same,IC50,MDCK cells [2],>10 µg/mL
same,toxicity level (cytotoxicity),"Huh7 ET cell line; highest test concentration of 10 μg/ml, FIG. 7",never reached a toxicity level
same,overall reduction in cell growth,"Huh7 ET cell line; single high-test concentration of 20 μM, 72 hr",25%
same,Cytotoxicity (% reduction in rRNA)*,Huh7 ET cell line; 72 hr,74.5%
same,pEC50,HIV-1 ROJO,9.20
same,IC50,Vero76 cells [13],>100 µg/mL
same,IC50 in each assay,Vero76 cells [13],greater than 100 μg/ml
same,interaction with cCD4 (ELISA),sCD4,little or no detectable interaction
same,subsequent binding of cyanovirin-N to sgp120,soluble gp120 (sgp120); Griffithsin pretreatment of sgp120,did not block
same,"recognition of sgp120 by mAbs that recognize the C1 region (or V3 loop), and the mAb 17b",soluble gp120 (sgp120); effect of Griffithsin,little or no effect
same,recognition of sgp120 by the mAbs 48d and 2G12,soluble gp120 (sgp120); effect of Griffithsin,interfered strongly
same,sCD4 and mAb IgG 1b12 binding to sgp120,soluble gp120 (sgp120); effect of Griffithsin,moderately interfered
same,subsequent binding of Griffithsin to sgp120,"soluble gp120 (sgp120); sgp120 pretreated with sCD4 and the mAbs IgG1b12, 48d, and 2G12",did not block
same,infectivity of cell-free virus,HIV; after pretreatment of virus and removal of Griffithsin,abolished
same,susceptibility of pretreated uninfected CEM-SS cells to HIV infection,HIV; after the removal of Griffithsin,retained normal susceptibility
same,IC50,Vero76 cells [14],>100 µg/mL
same,EC50,Panama/2007/99 (H3N2),0.006 µg/mL
same,EC50,Texas/36/91 (H1N1),0.06 µg/mL
same,pEC50,HIV-1 Ba-L,10.01
Cyanovirin-N [reference compound],recognition of sgp120 by Griffithsin,soluble gp120 (sgp120); effect of cyanovirin-N,interfered strongly
